Series [1] relates to claudin-1 overexpressing cells. Nature of the series: Co-treatment with 5FU, inhibition of cell growth. It counts as cell-based. The following applies: 16 in combination with 5-FU. From the text:
Curve fitting analysis was done using four parametric logistic regression curve.
The CSC cells contribute to the generation of metastasis (16-19), and key CSC characteristics are highly relevant to metastasis, including invasive motility, and, resistance to apoptosis (20,21). […] Considering that chemoresistance is central to the CRC progression and metastasis, we further tested if adjuvant use of 16 with 5FU can have significant bearing upon these traits. Colon cancer cells were subjected to exogenous administration of 16 alone, or in combination with the 5-FU, the conventional anti-CRC drug. […] To further determine the mechanistic details the effect of 16 on association of claudin-1 and Src, SW480claudin-1 cells were treated with 16 or the vehicle and resultant cell lysate was subjected to Proximity ligation assay (PLA) or Co—IP.

Series [2] can be described thus: Pharmacokinetics after single i.v. dose. It counts as in vivo, mice. As to the method: To determine the in vivo characteristics of this drug, a pharmacokinetic and tissue distribution study on 16 was performed. Following a single i.v. dose of 16 (1 mg/kg) in mice (C57B/16; n=5), serial blood samples were obtained at 0.08, 0.25, 0.75, 2, 4, 6, 8 and 24 hours after the injection and plasma samples were analyzed for 16 concentrations. Pharmacokinetic parameter values were obtained from the plasma concentration-time data using standard non-compartmental methods (WinNonlin, PharSight Corp). […] To assess the tissue distribution of 16, mice were sacrificed at 2, 8 and 24 hours after the i.v. administration of the drug. Measurable concentrations of 16 were detected in all studied tissues at 2, 8, and 24 h. […] Next, metabolic stability studies of 16 was evaluated using mouse liver S9 fractions for the in vitro assessment of phase I and II metabolism. […] Testosterone, 7-HC and diclofenac were used as positive controls, ensuring proper incubation conditions were maintained. […] The results of these in vitro drug metabolism studies guided the rational development of 16 structural analogs.
Pharmacokinetic parameter values were estimated from the plasma concentration-time data using standard noncompartmental methods and software (WinNonlin, PharSight Corp). […] Terminal elimination half-life (t1/2) was calculated by dividing 0.693 by terminal elimination rate constant Iz. Drug clearance (Cl) was calculated using standard equations. Area under the plasma concentration-time curve from 0 to 24 hours (AUCO-24) was calculated with the linear-log trapezoidal rule. The area under the plasma concentration-time curve from 0 to infinity (AUCO-infinity) was calculated as AUCO-24+C24/Iz. The absolute bioavailability (F) was calculated as the ratio between the AUCO-infinity from oral and intravenous routes using standard equations (FIG. 39).

Series [3] in a line: Metabolic stability in mouse liver S9 fractions. Format: in vitro ADME. How it is done: To determine the in vivo characteristics of this drug, a pharmacokinetic and tissue distribution study on 16 was performed. Following a single i.v. dose of 16 (1 mg/kg) in mice (C57B/16; n=5), serial blood samples were obtained at 0.08, 0.25, 0.75, 2, 4, 6, 8 and 24 hours after the injection and plasma samples were analyzed for 16 concentrations. Pharmacokinetic parameter values were obtained from the plasma concentration-time data using standard non-compartmental methods (WinNonlin, PharSight Corp). […] To assess the tissue distribution of 16, mice were sacrificed at 2, 8 and 24 hours after the i.v. administration of the drug. Measurable concentrations of 16 were detected in all studied tissues at 2, 8, and 24 h. […] Next, metabolic stability studies of 16 was evaluated using mouse liver S9 fractions for the in vitro assessment of phase I and II metabolism. […] Testosterone, 7-HC and diclofenac were used as positive controls, ensuring proper incubation conditions were maintained. […]
(§1) Metabolic stability and reaction phenotyping: The in vitro metabolic stability of studies was determined using mice and human liver microsomes and S9 fractions (XenoTech, LLC, Lenexa, KS, USA) following standard protocols (33, 35, 36). […] Drug concentrations were determined using LC-MS/MS. […] UGTs are analyzed in Corning® Supersomes™ if incubation of HLMs with UDPGA also results in metabolite formation.

Series [4] is described as follows: Phase I metabolism in human liver microsomes. Format: in vitro ADME. The following applies: 60 minutes, compared to 16.
Text: The result of the metabolic stability study was expressed as the % drug conc. remaining.
To this end, a library of molecules was synthesized in order to develop an initial SAR evaluation. The first compounds tested eliminated the acylated (thio) urea as well as the napthyl group and evaluated just the urea/phenyl compounds (Compounds 1-6). The methoxy group of the naphthalene ring system was needed when the benzimidazole group was present (16 vs. Compound 8). […] The result of metabolic stability was expressed as the percentage of drug remaining at each time. […] To further determine the effect of PDS-0330 on p-Src expression and association, cells were treated with Compound 1, 16 and PDS-0330. Expression and association with p-Src was unaffected with Compound 1 (negative control). The specificity of PDS-0330 for CLDN1 was further confirmed by treating SW480^CLDN1, HCT116^CLDN2 (overexpressing another tight junction protein) or normal IEC-6 cells with PDS-0330 (FIG. 12).
as §1
On the technique in general: Liver microsomes are a subcellular fraction often used to study metabolism.

Series [5] deals with claudin-1 overexpressed patient-derived xenograft. The series is described as follows: Patient-derived xenograft (PDX) tumors. As to conditions: 5 mg/kg and 10 mg/kg. It counts as in vivo, nude mice. As to the method: Representative images of tumors from the vehicle and PDS-0330 (5 mg/kg and 10 mg/kg)-treated claudin-1 overexpressed PDX implanted nude mice.
Tumor volume was measured using calipers over time (n=5 mice per group). The formation of flank xenograft tumors in claudin-1 overexpressed PDX implanted nude mice was examined between vehicle and PDS-0330 (5 mg/kg and 10 mg/kg) treatment (n=5 mice per group). For graphs, data represent mean±SD; *, P<0.05; **, P<0.01; ***, P<0.001 & ****, P<0.0001.
Establishment of fresh patient derived xenograft (PDX) with tumors from the operating room. Human patient colon cancers were excised under standard sterile conditions. Initially, tumor fragments were implanted subcutaneously within 30 min of patient surgery over the right and left upper and lower flanks in nude mice. Subcutaneous tumors were allowed to grow for 2-4 weeks until large enough to supply adequate tumor for orthotopic implantation for PDOX models.
A general note: Xenograft models place foreign cells or tissue in a host animal.

Series [6] is described as follows: Blood urea nitrogen (BUN) toxicity measurement. Also noted: species or system mice. The following applies: mouse, in vivo. The text has this: Data are expressed as means±SEM (n=5 mice/group).

Experimental findings from patent publication US20250009716A1, “NOVEL INHIBITORS OF CLAUDIN-1 FOR THERAPEUTIC INTERVENTIONS” (BOARD OF REGENTS OF THE UNIVERSITY OF NEBRASKA, priority 2021, published 2025) are described below.

“Also recorded” adds a separate entry of the source.

Take `COc1cc2ccccc2cc1C(=O)NC(=S)Nc1ccc(-c2nc3ccccc3[nH]2)cc1` [Compound 16]: the “combination effect with 5FU” value in series [1] was “significant synergy; also recorded: synergistic effect in inhibition of cell growth”. Further, in series [2] (1 mg/kg i.v.), the clearance was determined as 0.8 L/h/kg and the “time up to which detectable in plasma” value is “up to 24 hrs”. Further, the peak concentration in series [2] (1 mg/kg i.v., plasma) worked out at 798 ng/mL. Also, the “mouse behavior or weight” value in series [2] (24 hours after single i.v. injection) is “no change in mouse behavior or weight”. Further, the AUC in series [2] (C57B/16, mouse, iv, 1 mg/kg i.v., plasma) stood at 1.21 µg·h/mL. For the same compound, the half-life in series [2] (C57B/16, mouse, plasma, iv, 1 mg/kg i.v., read-out: elimination t1/2 (converted)) was 7 h. Further, in series [2] (C57B/16, mouse, plasma, iv, 1 mg/kg i.v., read-out: volume of distribution), the Vd stood at 8.4 L/kg. The primary metabolites identified entry in series [3] is “acetylation and hydroxylation with subsequent glucuronidation”. Also, the drug remaining in series [3] (after 60 minutes, phase I and II metabolism) was 30%.

For `O=C(NC(=S)Nc1ccc(-c2nc3ccccc3o2)cc1)c1ccc2ccccc2c1` [PDS-0330], in series [4], the metabolic stability entry is “metabolically stable over 60 minutes”. Further, the tumor formation entry in series [5] is listed as “inhibits tumor formation”. In series [6], the “cytotoxic effect by blood urea nitrogen (BUN)” value is given as “no cytotoxic effect in mice”.

As a reminder, the clearance is the volume of plasma or blood freed of the substance per unit of time. In general, AUC refers to the area under the concentration-time curve, a measure of exposure. Read a high AUC as high exposure.
